In one assay the target is T1, STAT6 (Homo sapiens, UniProt P42226).
T1 construct: endogenous in cells; host or cells: MOLM-16, KU-812, SKNO1, MB231, L1236
T1 sequence (P42226 1-847): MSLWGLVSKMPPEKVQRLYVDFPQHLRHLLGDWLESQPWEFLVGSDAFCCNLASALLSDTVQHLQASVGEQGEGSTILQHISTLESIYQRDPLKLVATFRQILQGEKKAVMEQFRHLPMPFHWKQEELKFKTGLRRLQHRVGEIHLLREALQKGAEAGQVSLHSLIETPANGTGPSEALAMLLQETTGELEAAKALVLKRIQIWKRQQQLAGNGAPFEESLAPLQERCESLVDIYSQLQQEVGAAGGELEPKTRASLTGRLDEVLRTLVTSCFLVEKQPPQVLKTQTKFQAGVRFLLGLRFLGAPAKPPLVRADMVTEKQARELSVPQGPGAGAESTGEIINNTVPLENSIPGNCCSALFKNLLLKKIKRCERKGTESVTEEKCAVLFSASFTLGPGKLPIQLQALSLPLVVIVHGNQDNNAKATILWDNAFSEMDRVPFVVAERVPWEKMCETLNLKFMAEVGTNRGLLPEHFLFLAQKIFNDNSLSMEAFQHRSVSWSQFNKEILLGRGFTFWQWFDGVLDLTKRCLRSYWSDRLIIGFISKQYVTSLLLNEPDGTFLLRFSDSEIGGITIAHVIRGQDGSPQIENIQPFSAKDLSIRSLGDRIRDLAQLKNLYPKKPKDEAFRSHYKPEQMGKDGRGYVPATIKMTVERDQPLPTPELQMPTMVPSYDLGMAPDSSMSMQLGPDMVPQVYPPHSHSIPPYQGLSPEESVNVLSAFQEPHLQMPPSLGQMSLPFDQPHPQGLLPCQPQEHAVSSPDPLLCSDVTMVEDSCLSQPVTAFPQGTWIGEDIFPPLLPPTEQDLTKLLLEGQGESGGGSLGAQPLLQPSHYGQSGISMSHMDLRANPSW
Briefly: Immunoblotting (Western blot) analysis of STAT6 degradation efficiency of degraders in treated cells. It counts as cell-based. The method in brief:
(§1)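 About 1 million cells per point, grown in 10% FBS medium at 37 °C/5% CO2, were exposed to compound at the indicated concentrations and times, then lysed in RIPA buffer with protease and phosphatase inhibitors. Equal protein (20-40 μg) was resolved by SDS-PAGE, blotted to PVDF, and probed with anti-STAT5, anti-STAT6 and anti-GAPDH antibodies.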

The subject of a further assay is STAT5. Description: Immunoblotting (Western blot) analysis of STAT5 degradation efficiency of degraders in treated cells. It counts as cell-based. The method in brief: as §1
The mark [1] stands for this setting: MB231 cells, read-out: DC50 S6 MB231.
Where [2] appears, read: MOLM-16 cells, class symbols, read-out: DC50 S6 MOLM-16.
[3] abbreviates: KU-812 cells, read-out: DC50 S5 KU-812.
The mark [4] stands for this setting: MOLM-16 cells, class symbols, read-out: DC50 S5 MOLM-16.
Where [5] appears, read: SKNO1 cells, read-out: DC50 S5 SKNO1.
The mark [6] stands for this setting: L1236 cells, read-out: DC50 S6 L1236.

Each structure is given as a SMILES string. Where two headings read alike, the source gives them in different places.

For `CC(C)(C)[C@H](NC(=O)c1cc2cc(C(F)(F)P(=O)(O)O)ccc2s1)C(=O)N1CCC[C@H]1C(=O)N(CCC(=O)NCCCCCCCCC#Cc1cccc2c1CN(C1CCC(=O)NC1=O)C2=O)c1ccc(Br)cc1` (stereo partly drawn) [Compound 403, ((2-(((2S)-1-((2S)-2-((4-bromophenyl)(3-((10-(2-(2,6-dioxopiperidin-3-yl)-1-oxoisoindolin-4-yl)dec-9-yn-1-yl)amino)-3-oxopropyl)carbamoyl)pyrrolidin-1-yl)-3,3-dimethyl-1-oxobutan-2-yl)carbamoyl)benzo[b]thiophen-5-yl)difluoromethyl)phosphonic acid], the DC50 is above 10 µM at STAT6 (setting [1]), above 10 µM at STAT6 (setting [2]), above 10 µM in the assay on STAT5 (setting [3]) and 1 to 10 µM in the assay with STAT5 (setting [4]).

On to `CC(C)(C)[C@H](NC(=O)c1cc2cc(C(F)(F)P(=O)(O)O)ccc2s1)C(=O)N1CCC[C@H]1C(=O)N(CCC(=O)NCCCCCCC#Cc1cccc2c1CN(C1CCC(=O)NC1=O)C2=O)c1ccc(Br)cc1` (stereo partly drawn) [Compound 404, ((2-(((2S)-1-((2S)-2-((4-bromophenyl)(3-((8-(2-(2,6-dioxopiperidin-3-yl)-1-oxoisoindolin-4-yl)oct-7-yn-1-yl)amino)-3-oxopropyl)carbamoyl)pyrrolidin-1-yl)-3,3-dimethyl-1-oxobutan-2-yl)carbamoyl)benzo[b]thiophen-5-yl)difluoromethyl)phosphonic acid], for which the DC50 on STAT6 (setting [1]) is above 10 µM; on STAT6 (setting [2]), above 10 µM; with STAT5 (setting [3]), 0.1 to 1 µM; with STAT5 (setting [4]) it was 0.1 to 1 µM; in the assay with STAT5 (setting [5]), 1 to 10 µM.

For the compound `CC(C)(C)[C@H](NC(=O)c1cc2cc(C(F)(F)P(=O)(O)O)ccc2s1)C(=O)N1CCC[C@H]1C(=O)N(CCC(=O)NCCCCCC#Cc1cccc2c1CN(C1CCC(=O)NC1=O)C2=O)c1ccc(Br)cc1` (stereo partly drawn) [Compound 405, ((2-(((2S)-1-((2S)-2-((4-bromophenyl)(3-((7-(2-(2,6-dioxopiperidin-3-yl)-1-oxoisoindolin-4-yl)hept-6-yn-1-yl)amino)-3-oxopropyl)carbamoyl)pyrrolidin-1-yl)-3,3-dimethyl-1-oxobutan-2-yl)carbamoyl)benzo[b]thiophen-5-yl)difluoromethyl)phosphonic acid], the DC50 is above 10 µM at STAT6 (setting [1]); above 10 µM at STAT6 (setting [2]); 0.1 to 1 µM in the assay with STAT5 (setting [3]); 0.1 to 1 µM with STAT5 (setting [4]); 0.1 to 1 µM in the assay with STAT5 (setting [5]).

For `CC(C)(C)[C@H](NC(=O)c1cc2cc(C(F)(F)P(=O)(O)O)ccc2s1)C(=O)N1CCC[C@H]1C(=O)N(CCC(=O)NCCCC#Cc1cccc2c1CN(C1CCC(=O)NC1=O)C2=O)c1ccc(Br)cc1` (stereo partly drawn) [Compound 406, ((2-(((2S)-1-((2S)-2-((4-bromophenyl)(3-((5-(2-(2,6-dioxopiperidin-3-yl)-1-oxoisoindolin-4-yl)pent-4-yn-1-yl)amino)-3-oxopropyl)carbamoyl)pyrrolidin-1-yl)-3,3-dimethyl-1-oxobutan-2-yl)carbamoyl)benzo[b]thiophen-5-yl)difluoromethyl)phosphonic acid], the DC50 on STAT6 (KU-812 cells, read-out: DC50 S6 KU-812) was above 10 µM; at STAT6 (setting [1]), above 10 µM; on STAT6 (setting [2]), above 10 µM; at STAT6 (SKNO1 cells, read-out: DC50 S6 SKNO1), above 10 µM; in the assay on STAT5 (setting [3]), 0.1 to 1 µM; with STAT5 (setting [4]), below 0.1 µM. Also, in the assay on STAT5 (setting [5]), the 50% degradation concentration (DC50) was in the range of 0.1 to 1 µM.

Take `CN(C(=O)[C@@H]1C[C@@H](OCC(=O)NCCCC#Cc2cccc3c2CN(C2CCC(=O)NC2=O)C3=O)CN1C(=O)[C@@H](NC(=O)c1cc2cc(C(F)(F)P(=O)(O)O)ccc2s1)C(C)(C)C)c1ccc(Br)cc1` (stereo partly drawn) [Compound 411, ((2-(((2S)-1-((2S,4R)-2-((4-bromophenyl)(methyl)carbamoyl)-4-(2-((5-(2-(2,6-dioxopiperidin-3-yl)-1-oxoisoindolin-4-yl)pent-4-yn-1-yl)amino)-2-oxoethoxy)pyrrolidin-1-yl)-3,3-dimethyl-1-oxobutan-2-yl)carbamoyl)benzo[b]thiophen-5-yl)difluoromethyl)phosphonic acid]: the DC50 on STAT6 (setting [6]), on STAT6 (setting [1]) and in the assay with STAT5 (setting [5]) was above 10 µM each time.

For `CN(C(=O)[C@@H]1C[C@@H](OCC(=O)NCCCCCC#Cc2cccc3c2CN(C2CCC(=O)NC2=O)C3=O)CN1C(=O)[C@@H](NC(=O)c1cc2cc(C(F)(F)P(=O)(O)O)ccc2s1)C(C)(C)C)c1ccc(Br)cc1` (stereo partly drawn) [Compound 412, ((2-(((2S)-1-((2S,4R)-2-((4-bromophenyl)(methyl)carbamoyl)-4-(2-((7-(2-(2,6-dioxopiperidin-3-yl)-1-oxoisoindolin-4-yl)hept-6-yn-1-yl)amino)-2-oxoethoxy)pyrrolidin-1-yl)-3,3-dimethyl-1-oxobutan-2-yl)carbamoyl)benzo[b]thiophen-5-yl)difluoromethyl)phosphonic acid], the DC50 on STAT6 (setting [6]), at STAT6 (setting [1]) and with STAT5 (setting [5]) was above 10 µM throughout.

Consider `CN(C(=O)[C@@H]1C[C@@H](OCC(=O)NCCCCCCC#Cc2cccc3c2CN(C2CCC(=O)NC2=O)C3=O)CN1C(=O)[C@@H](NC(=O)c1cc2cc(C(F)(F)P(=O)(O)O)ccc2s1)C(C)(C)C)c1ccc(Br)cc1` (stereo partly drawn) [Compound 413, ((2-(((2S)-1-((2S,4R)-2-((4-bromophenyl)(methyl)carbamoyl)-4-(2-((8-(2-(2,6-dioxopiperidin-3-yl)-1-oxoisoindolin-4-yl)oct-7-yn-1-yl)amino)-2-oxoethoxy)pyrrolidin-1-yl)-3,3-dimethyl-1-oxobutan-2-yl)carbamoyl)benzo[b]thiophen-5-yl)difluoromethyl)phosphonic acid], for which the DC50 at STAT6 (setting [6]), on STAT6 (setting [1]) and with STAT5 (setting [5]) was above 10 µM each time.

As for `CN(C(=O)[C@@H]1C[C@@H](OCC(=O)NCCCCCCCCC#Cc2cccc3c2CN(C2CCC(=O)NC2=O)C3=O)CN1C(=O)[C@@H](NC(=O)c1cc2cc(C(F)(F)P(=O)(O)O)ccc2s1)C(C)(C)C)c1ccc(Br)cc1` (stereo partly drawn) [Compound 414, ((2-(((2S)-1-((2S,4R)-2-((4-bromophenyl)(methyl)carbamoyl)-4-(2-((10-(2-(2,6-dioxopiperidin-3-yl)-1-oxoisoindolin-4-yl)dec-9-yn-1-yl)amino)-2-oxoethoxy)pyrrolidin-1-yl)-3,3-dimethyl-1-oxobutan-2-yl)carbamoyl)benzo[b]thiophen-5-yl)difluoromethyl)phosphonic acid], the DC50 on STAT6 (setting [6]), at STAT6 (setting [1]) and with STAT5 (setting [5]) was above 10 µM throughout.

As for `CN(C(=O)[C@@H]1C[C@@H](OCC(=O)NCCCCCCCCCC#Cc2cccc3c2CN(C2CCC(=O)NC2=O)C3=O)CN1C(=O)[C@@H](NC(=O)c1cc2cc(C(F)(F)P(=O)(O)O)ccc2s1)C(C)(C)C)c1ccc(Br)cc1` (stereo partly drawn) [Compound 415, ((2-(((2S)-1-((2S,4R)-2-((4-bromophenyl)(methyl)carbamoyl)-4-(2-((11-(2-(2,6-dioxopiperidin-3-yl)-1-oxoisoindolin-4-yl)undec-10-yn-1-yl)amino)-2-oxoethoxy)pyrrolidin-1-yl)-3,3-dimethyl-1-oxobutan-2-yl)carbamoyl)benzo[b]thiophen-5-yl)difluoromethyl)phosphonic acid], the DC50 on STAT6 (setting [6]), at STAT6 (setting [1]) and in the assay with STAT5 (setting [5]) was above 10 µM throughout.

Turning to `CC(C)(C)[C@H](NC(=O)c1cc2cc(C(F)(F)P(=O)(O)O)ccc2s1)C(=O)N1C[C@H](NC(=O)CCCCCC#Cc2cccc3c2CN(C2CCC(=O)NC2=O)C3=O)C[C@H]1C(=O)Nc1ncc(-c2ccccc2)s1` (stereo partly drawn) [Compound 567, ((2-(((2S)-1-((2S,4R)-4-(8-(2-(2,6-dioxopiperidin-3-yl)-1-oxoisoindolin-4-yl)oct-7-ynamido)-2-((5-phenylthiazol-2-yl)carbamoyl)pyrrolidin-1-yl)-3,3-dimethyl-1-oxobutan-2-yl)carbamoyl)benzo[b]thiophen-5-yl)difluoromethyl)phosphonic acid], the DC50 at STAT6 (MOLM-16 cells, numeric bound, read-out: DC50 S6 MOLM-16) was above 0.3 µM; in the assay on STAT5 (MOLM-16 cells, numeric bound, read-out: DC50 S5 MOLM-16), above 0.3 µM.

Values taken from patent US20230295197A1, “STAT5 and STAT6 Degraders and Uses Thereof” (REGENTS OF THE UNIVERSITY OF MICHICAN, priority 2022, published 2023).
